In this experiment the target is T1, rat intestinal α-glucosidase.
T1 construct: gene Mgam; crude supernatant of rat intestinal acetone powder (Sigma N1377-5G), brush border enzymes, not purified
Description: p-nitrophenol release, absorbance […] nm, five-point dose-response. The experiment is classed as biochemical. The conditions noted are these: substrate p-nitrophenyl α-D-glucoside (1 mM stock, 200 µL in 1 mL), phosphate pH 6.8, 37 °C, 5 min pre-incubation; crude extract.

Data on 1 compound can be found in article PMC11675744, “Grape Pomace as a Source of Phenolics for the Inhibition of Starch Digestion Enzymes: A Comparative Study and Standardization of the Efficacy” (Foods, 2024).

As to `C[C@H]1O[C@H](O[C@H]2[C@H](O)[C@@H](O)[C@@H](O[C@H]3[C@H](O)[C@@H](O)C(O)O[C@@H]3CO)O[C@@H]2CO)[C@H](O)[C@@H](O)[C@@H]1N[C@H]1C=C(CO)[C@@H](O)[C@H](O)[C@H]1O` (stereo partly shown) [acarbose], the I50 came to 100 µg/mL.
